Reference: PubChem BioAssay AID248 (DTP/NCI, 2004)
Toxic doses and inconclusive results are not listed. Cut-off read from the data, not from the text of the source: active = T/C of 150% or more; inactive = T/C below 125%.

System: L1210 leukemia ip in BDF1 mice, survival T/C
Assay: NCI In Vivo Anticancer Drug Screen. Data for tumor model L1210 Leukemia (intraperitoneal) in B6D2F1 (BDF1) mice
Conditions: endpoint: mean survival time, higher = longer survival
Procedure, shortened: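 Antitumor effect is assessed in tumor-bearing animals. Survival in the compound arm is compared with a vehicle-dosed control arm and expressed as their quotient.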

[1] = dose: 200.0 mg/kg/injection, schedule: Q04DX003 (ip), vehicle: Klucel (hydroxypropylcellulose) (HPC)
[2] = dose: 400.0 mg/kg/injection, schedule: Q04DX003 (ip), vehicle: Klucel (hydroxypropylcellulose) (HPC)
[3] = dose: 50.0 mg/kg/injection, schedule: Q01DX001 (ip), vehicle: saline with Tween-80
[4] = dose: 100.0 mg/kg/injection, schedule: Q01DX001 (ip), vehicle: saline with Tween-80
[5] = dose: 200.0 mg/kg/injection, schedule: Q04DX002 (ip), vehicle: Klucel (hydroxypropylcellulose) (HPC)
[6] = dose: 100.0 mg/kg/injection, schedule: Q04DX003 (ip), vehicle: Klucel (hydroxypropylcellulose) (HPC)

Measured: T/C

ClCC[N-]CC[N-]CCCl.[Cl][Pt+2][Cl]
inactive: dose: 100.0 mg/kg/injection, schedule: Q01DX001 (ip), vehicle: Klucel (hydroxypropylcellulose) (HPC) 113 % of control | dose: 200.0 mg/kg/injection, schedule: Q01DX001 (ip), vehicle: Klucel (hydroxypropylcellulose) (HPC) 107 % of control | [1] 104 % of control | [2] 88 % of control

OC1C2C=CC1C1C=CC1=CC2 (centres undefined)
inactive: [3] 103 % of control | [4] 108 % of control | dose: 200.0 mg/kg/injection, schedule: Q01DX001 (ip), vehicle: saline with Tween-80 98 % of control

CC1(C)N=C(N)N=C(N)N1c1cccc(C(=O)CCl)c1
inactive: dose: 25.0 mg/kg/injection, schedule: Q01DX001 (ip), vehicle: saline with Tween-80 95 % of control | [3] 103 % of control | [4] 101 % of control

CC(N)c1ccccc1 (centres undefined) (tested in a mixture with another compound)
inactive: dose: 50.0 mg/kg/injection, schedule: Q01DX009 (ip), vehicle: saline 87 % of control | dose: 100.0 mg/kg/injection, schedule: Q01DX009 (ip), vehicle: saline 90 % of control

CCCCCCCCCCCCCC(=O)OCCC(C)C
inactive: dose: 222.0 mg/kg/injection, schedule: Q01DX Z (ip), vehicle: saline 105 % of control | dose: 333.0 mg/kg/injection, schedule: Q01DX Z (ip), vehicle: saline 95 % of control | dose: 500.0 mg/kg/injection, schedule: Q01DX Z (ip), vehicle: saline 102 % of control

Cc1ccc(NC(=O)c2cc([N+](=O)[O-])cc([N+](=O)[O-])c2)c(C)c1
inactive: dose: 100.0 mg/kg/injection, schedule: Q04DX002 (ip), vehicle: Klucel (hydroxypropylcellulose) (HPC) 94 % of control | [5] 94 % of control | dose: 400.0 mg/kg/injection, schedule: Q04DX002 (ip), vehicle: Klucel (hydroxypropylcellulose) (HPC) 91 % of control

O=C(C=C(C(F)(F)F)C(F)(F)F)c1cccs1
inactive: dose: 3.12 mg/kg/injection, schedule: Q01DX009 (ip), vehicle: saline 101 % of control | dose: 6.25 mg/kg/injection, schedule: Q01DX009 (ip), vehicle: saline 101 % of control | dose: 12.5 mg/kg/injection, schedule: Q01DX009 (ip), vehicle: saline 101 % of control | dose: 12.5 mg/kg/injection, schedule: Q04DX003 (ip), vehicle: saline 93 % of control | dose: 25.0 mg/kg/injection, schedule: Q01DX009 (ip), vehicle: saline 110 % of control | dose: 25.0 mg/kg/injection, schedule: Q04DX003 (ip), vehicle: saline 97 % of control | dose: 50.0 mg/kg/injection, schedule: Q04DX003 (ip), vehicle: saline 93 % of control | dose: 100.0 mg/kg/injection, schedule: Q04DX003 (ip), vehicle: saline 98 % of control

O=C(c1ccccc1)N1C(c2ccccc2)C1(c1ccccc1)C1(c2ccccc2)SCCCS1 (centres undefined)
inactive: dose: 100.0 mg/kg/injection, schedule: Q01DX009 (ip), vehicle: Klucel (hydroxypropylcellulose) (HPC) 94 % of control | [6] 108 % of control | dose: 200.0 mg/kg/injection, schedule: Q01DX009 (ip), vehicle: Klucel (hydroxypropylcellulose) (HPC) 101 % of control | [1] 100 % of control | dose: 400.0 mg/kg/injection, schedule: Q01DX009 (ip), vehicle: Klucel (hydroxypropylcellulose) (HPC) 91 % of control | [2] 97 % of control

CC(C)(O)CC1=C(O)c2ccccc2C(=O)C1=O
inactive: dose: 50.0 mg/kg/injection, schedule: Q01DX001 (ip), vehicle: carboxymethylcellulose (CMC) 105 % of control | dose: 100.0 mg/kg/injection, schedule: Q01DX001 (ip), vehicle: carboxymethylcellulose (CMC) 97 % of control | dose: 200.0 mg/kg/injection, schedule: Q01DX001 (ip), vehicle: carboxymethylcellulose (CMC) 105 % of control | dose: 400.0 mg/kg/injection, schedule: Q01DX001 (ip), vehicle: carboxymethylcellulose (CMC) 105 % of control

CC12c3ccccc3C(c3c1ccc1ccccc31)C1C(=O)OC(=O)C12 (centres undefined)
inactive: [6] 96 % of control | [1] 104 % of control | [2] 98 % of control

Cc1ccc([N+](=O)[O-])cc1NC(=O)COc1ccc(Cl)cc1
inactive: dose: 100.0 mg/kg/injection, schedule: Q01DX009 (ip), vehicle: saline with Tween-80 91 % of control | dose: 200.0 mg/kg/injection, schedule: Q01DX009 (ip), vehicle: saline with Tween-80 89 % of control | dose: 400.0 mg/kg/injection, schedule: Q01DX009 (ip), vehicle: saline with Tween-80 89 % of control

CC(=O)OC1C2OC3C=C(C)CCC3(CO)C(C)(C1O)C21CO1 (centres undefined)
inactive: dose: 0.8 mg/kg/injection, schedule: Q01DX009 (ip), vehicle: other 101 % of control | dose: 1.6 mg/kg/injection, schedule: Q01DX009 (ip), vehicle: other 104 % of control | dose: 3.2 mg/kg/injection, schedule: Q01DX009 (ip), vehicle: other 101 % of control | dose: 6.4 mg/kg/injection, schedule: Q01DX009 (ip), vehicle: other 114 % of control | dose: 12.8 mg/kg/injection, schedule: Q01DX009 (ip), vehicle: other 122 % of control | dose: 25.6 mg/kg/injection, schedule: Q01DX009 (ip), vehicle: other 122 % of control

COc1ccc(/C=C(\S)C(=O)O)cc1
inactive: dose: 100.0 mg/kg/injection, schedule: Q01DX001 (ip), vehicle: saline 96 % of control | dose: 200.0 mg/kg/injection, schedule: Q01DX001 (ip), vehicle: saline 118 % of control | dose: 1040.0 mg/kg/injection, schedule: Q01DX001 (ip), vehicle: saline 111 % of control

N#Cc1c(C#N)c(N)n(N)c1N
inactive: [5] 114 % of control
